Data published in patent US8449794B2, “Non-resonant two-photon absorption recording material and non-resonant two-photon absorption compound” (FUJIFILM Corporation, priority 2010, dated 2013).
Where two headings read alike, the source gives them in different places.

Tests used:
[1] = measurement wavelength vicinity of 525 nm; value in document; cited from earlier work
[2] = Two-photon absorption cross-sectional area by Z scanning method; assay type: physicochemical; settings: measurement wavelength 550 nm; chloroform solution 1×10^−3
Protocol: Measurement of a two-photon absorption cross-sectional area of the synthesized compound is carried out by Z scanning method described in Mansoor Sheik-Baha et al., IEEE, Journal of Quantum Electronics, 1990, 26, 760. Z scanning method is a widely used method as the measuring method of a non-linear optical constant. In the vicinity of the focus of converged laser beam, a measuring sample is moved along the beam and the change of the quantity of transmitting light is recorded. Since the power density of incident light changes depending upon the position of a sample, the quantity of transmitting light attenuates in the vicinity of the focus in the case where non-linear absorption is present. A two-photon absorption cross-sectional area is computed by fitting the change of the quantity of transmitting light to the theoretical curve predictable from the intensity of incident light, the size of converging spot of light, the thickness of a sample and the concentration of a sample. As the light sources for the measurement of a two-photon absorption cross-sectional area, a Ti-sapphire pulse laser (pulse duration: 100 fs, repetition: 80 MHz, average output: 1 W, peak power: 100 kW) obtained by combining a […] amplifier and light parametric amplifier is used. […]

[3] = Evaluation of solubility of two-photon absorption compound; assay type: physicochemical; settings: coating solvent dichloromethane
Protocol: The solubility of the compounds of the invention D-11, D-41 and D-405 and comparative compound R-2 in dichloromethane and 2-butanone is evaluated.

Row | Two-Photon Absorption Cross-Sectional Area [2] | Solubility (in words) [3] | Compound | Two-Photon Absorption Cross-Sectional Area [1]
1 | – | – | CCCCCCC(CCCC)Oc1ccc(-c2ccc(-c3ccc(-c4ccc(OC(CCCC)CCCCCC)cc4)cc3)cc2)cc1 (stereo not drawn) [Compound R-1] | 15 GM
2 | 200 GM | small in solubility | N#Cc1ccc(-c2ccc(-c3ccc(-c4ccc(C(=O)c5ccccc5)cc4)cc3)cc2)cc1 [Compound R-2] | –
